From PMC12783734, “Carboxymethylcytosine is a natural base modification and a handle for bacteriophage DNA hypermodification” (Nature Communications, 2025)

Biological target: T1, EcCmoA (Escherichia coli, UniProt P76290)
T1 construct: gene cmoA; E. coli BL21(DE3)
Assay: HPLC / LC-MS of Cx-SAM formation
Format: biochemical
Details: co-substrate prephenate; sodium phosphate pH 6.8; 37 C

T1 sequence (P76290 whole entry): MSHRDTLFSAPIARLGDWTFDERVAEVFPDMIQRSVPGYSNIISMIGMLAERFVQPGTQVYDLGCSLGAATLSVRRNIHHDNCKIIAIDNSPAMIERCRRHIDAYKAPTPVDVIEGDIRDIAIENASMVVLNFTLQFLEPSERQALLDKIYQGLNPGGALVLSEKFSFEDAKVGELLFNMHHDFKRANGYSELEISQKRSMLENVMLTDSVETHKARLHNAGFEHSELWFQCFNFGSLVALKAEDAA

SMILES: C[S+](CC[C@H](N)C(=O)O)C[C@H]1O[C@@H](n2cnc3c(N)ncnc32)[C@H](O)[C@@H]1O (stereo partly shown) [SAM]
- HPLC / LC-MS of Cx-SAM formation: Incubation with either SpCmoA or EcCmoA led to a decrease in the SAM peak
